Reference: patent US20250230138A1, “COMPOUNDS HAVING A T-STRUCTURE FORMED BY AT LEAST FOUR CYCLES FOR USE IN THE TREATMENT OF CANCER AND OTHER INDICATIONS” (TheRas, Inc., priority 2022, published 2025)
Like-named read-outs stand apart in the source and are kept apart here.

Columns and labels:
[1] = target: Cys242 in human PIK3CA (157-299) (Homo sapiens (Human), UniProt P42336); assay: Covalent modification assay using MALDI-TOF MS; format: biochemical; conditions: 4 h reaction time point
How it was run: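 PIK3CA (157-299) at 3.33 μM or 1 μM in 20 mM HEPES, 150 mM NaCl, 2 mM MgCl2, pH 7.3 was incubated with compound (from 10 mM DMSO stocks) in the dark at room temperature for 15 min, 30 min, 2 h or 4 h. Linear-mode MALDI-TOF peak heights gave percent modification.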

[2] = system: pAKT in BT474 cells; assay: Cell-based pAKT HTRF assay in BT474 cells; conditions: BT474 cells, 4 hr incubation, read-out: pAKT inhibition IC50 in BT474 cells
How it was run: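 Cells grown in DMEM with 10% FBS were exposed to compounds for 4 hr in 0.25% DMSO, using a 9-point, 3-fold dilution series that starts at 3 μM. Lysates were incubated with d2 and Eu Cryptate antibodies for 4–24 h at room temperature, and HTRF was read at 615 nm emission.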

[3] = 3.33 μM protein target, 1:7.5 protein to compound ratio (compounds 1-852)
[4] = 1 μM protein target, 1:5 protein to compound ratio (compounds 853-1279)
[5] = Homo sapiens, BT-474, Compounds 10-999

Cys242 in human PIK3CA (157-299), sequence (P42336 157-299): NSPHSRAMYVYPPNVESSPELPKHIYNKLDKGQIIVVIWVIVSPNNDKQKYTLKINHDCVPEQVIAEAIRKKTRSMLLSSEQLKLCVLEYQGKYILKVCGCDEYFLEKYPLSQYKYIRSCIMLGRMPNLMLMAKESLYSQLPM

| Compound | IC50 ([2]; Compounds 10-999) | % of modification [1, 3] | % of modification [1, 4] | also measured |
| --- | --- | --- | --- | --- |
| C=C(F)C(=O)N1CCn2nc(-c3nc(-c4cncc(C#N)c4)c4ccsc4c3-c3ccc(F)cc3OC(C)C)cc2C1 [Compound 303] | 100 to 1000 nM | A (percent of modification of PIK3CA protein ≥75%) | – | – |
| C=CC(=O)N1CC(n2cc(-c3nc(-c4ccc5c(c4)CNC5=O)c4ccsc4c3-c3ccc(F)cc3OC)cn2)C1 [Compound 282] | < 100 nM | A (percent of modification of PIK3CA protein ≥75%) | – | – |
| C=CC(=O)N1CCc2nc(-c3nc(-c4ccc5c(c4)CCNC5)c4ccsc4c3-c3ccc(F)cc3OCCOC)n(C)c2C1 [Compound 100] | 100 to 1000 nM | A (percent of modification of PIK3CA protein ≥75%) | – | – |
| C=CC(=O)N1CCc2ccc(-c3nc(-c4ccc5c(c4)CNC(=O)C5)c4ccsc4c3-c3c(F)cc(F)cc3OCCOC)cc2C1 [Compound 1066] | – | – | D (percent of modification <25%) | IC50 ([2]; Compounds 1000-1279): 100 to 1000 nM |
| C=CC(=O)N1Cc2cc(-c3nc(-c4ccc5c(cnn5C)c4)c4ccsc4c3-c3c(F)cc(F)cc3OCCOC)nn2[C@@H](C)C1 [Compound 739] | < 100 nM | A (percent of modification of PIK3CA protein ≥75%) | – | – |
| C=CC(=O)N1CCn2nc(-c3nc(-c4ccc(N(C)C)nc4)c4ccsc4c3-c3c(F)cc(F)cc3OCCO)cc2[C@@H]1C [Compound 957, 1-((S)-2-((S)-7-(2,4-difluoro-6-(2-hydroxyethoxy)phenyl)-4-(6-(dimethylamino)pyridin-3-yl)thieno[3,2-c]pyridin-6-yl)-4-methyl-6,7-dihydropyrazolo[1,5-a]pyrazin-5(4H)-yl)prop-2-en-1-one] | – | – | A (percent of modification of PIK3CA protein ≥75%) | IC50 [2, 5]: < 100 nM |
| C=CC(=O)N1CCc2nc(-c3nc(N4CCC(N(C)C)CC4)c4ccsc4c3-c3ccc(F)cc3OCCOC)sc2C1 [Compound 175] | 100 to 1000 nM | A (percent of modification of PIK3CA protein ≥75%) | – | – |
| C=CC(=O)N1Cc2cc(-c3nc(-c4cnn(C(C)C)c4)c4ccsc4c3-c3c(F)cc(F)cc3OC[C@@H](C)O)nn2C[C@H]1C [Compound 726] | < 100 nM | A (percent of modification of PIK3CA protein ≥75%) | – | – |
| C=CC(=O)N1CCc2nc(-c3nc(-c4ccc5c(cnn5C)c4)c4ccsc4c3-c3c(F)cc(F)cc3OCCO)sc2C1 [Compound 1032] | – | – | D (percent of modification <25%) | IC50 ([2]; Compounds 1000-1279): > 1000 nM |
| C=CC(=O)N1CCn2nc(-c3nc(-c4cnc5c(c4)CN(C)CC5(F)F)c4ccsc4c3-c3c(F)cc(F)cc3OCCOC)cc2[C@H]1C [Compound 1152, 1-((R)-2-((S)-7-(2,4-difluoro-6-(2-methoxyethoxy)phenyl)-4-(8,8-difluoro-6-methyl-5,6,7,8-tetrahydro-1,6-naphthyridin-3-yl)thieno[3,2-c]pyridin-6-yl)-4-methyl-6,7-dihydropyrazolo[1,5-a]pyrazin-5(4H)-yl)prop-2-en-1-one] | – | – | A (percent of modification of PIK3CA protein ≥75%) | IC50 ([2]; Homo sapiens, BT-474, Compounds 1000-1279): < 100 nM |
| C=CC(=O)N1CCn2nc(-c3nc(-c4cncc(OC5CN(C)C5)c4)c4ccsc4c3-c3c(F)cc(F)cc3OCCOC)cc2C1C (stereo not shown) [Compound 1203] | – | – | A (percent of modification of PIK3CA protein ≥75%) | IC50 ([2]; Compounds 1000-1279): < 100 nM |
| C=CC(=O)N1CCc2nc(-c3nc(-c4cnc5c(c4)CNC(=O)C5)c4ccsc4c3-c3ccc(F)cc3OCCOC)sc2C1 [Compound 119] | < 100 nM | A (percent of modification of PIK3CA protein ≥75%) | – | – |
| C=CC(=O)N1CCc2nc(-c3nc(-c4cnn(C5CNC5)c4)c4ccsc4c3-c3ccc(F)cc3OCCOC)sc2C1 [Compound 132, 1-[2-[4-[1-(azetidin-3-yl)pyrazol-4-yl]-7-[4-fluoro-2-(2-methoxyethoxy)phenyl]thieno[3,2-c]pyridin-6-yl]-6,7-dihydro-4H-thiazolo[5,4-c]pyridin-5-yl]prop-2-en-1-one] | – | A (percent of modification of PIK3CA protein ≥75%) | – | IC50 [2, 5]: 100 to 1000 nM |
| C=CC(=O)N1CCC(n2cc(-c3nc(-c4cn(C)cn4)c4ccsc4c3-c3ccc(F)cc3OCCOC)cn2)CC1 [Compound 73] | 100 to 1000 nM | A (percent of modification of PIK3CA protein ≥75%) | – | – |
| C=CC(=O)N1CCc2ncc(-c3nc(-c4ccc5c(c4)CCN(C)C5)c4ccsc4c3-c3c(F)cc(F)cc3OC)cc2C1 [Compound 425] | < 100 nM | A (percent of modification of PIK3CA protein ≥75%) | – | – |
| C=CC(=O)N1Cc2cc(-c3nc(-c4ccc5ncn(C)c5c4)c4ccsc4c3-c3c(F)cc(F)cc3OCC(C)O)nn2CC1C (stereo not shown) [Compound 765] | < 100 nM | A (percent of modification of PIK3CA protein ≥75%) | – | – |
| C=CC(=O)N1CC(n2cc(-c3nc(-c4ccc(C(N)=O)cc4)c4ccsc4c3-c3ccc(F)cc3OC)cn2)C1 [Compound 172] | < 100 nM | A (percent of modification of PIK3CA protein ≥75%) | – | – |
| C=CC(=O)N1CCn2nc(-c3nc(-c4ccc5c(c4)[C@H](O)CC5)c4ccsc4c3-c3ccc(F)cc3OCCOC)cc2C1 [Compound 257] | < 100 nM | A (percent of modification of PIK3CA protein ≥75%) | – | – |
| C=CC(=O)N1CCc2ncc(-c3nc(-c4cnc5c(c4)CNC(=O)C5)c4ccsc4c3-c3ccc(F)cc3OCCOC)cc2C1 [Compound 117] | < 100 nM | A (percent of modification of PIK3CA protein ≥75%) | – | – |
| C=CC(=O)N1CCn2nc(-c3nc(-c4ccc(=O)[nH]c4)c4ccsc4c3-c3ccc(F)cc3OC(C)C)cc2C1 [Compound 248] | < 100 nM | A (percent of modification of PIK3CA protein ≥75%) | – | – |
| C=CC(=O)N1CCn2nc(-c3nc(-c4ccc5cnn(C)c5c4)c4ccsc4c3-c3c(F)cc(F)cc3OCC(C)O)cc2C1C (stereo not shown) [Compound 769] | < 100 nM | A (percent of modification of PIK3CA protein ≥75%) | – | – |
| C=CC(=O)N1CCc2nc(-c3nc(-c4ccc5c(c4)CCNC5)c4ccsc4c3-c3c(F)cc(F)cc3OC(C)C)sc2C1 [Compound 367] | 100 to 1000 nM | A (percent of modification of PIK3CA protein ≥75%) | – | – |

The next lines start with results.

| IC50 ([2]; Compounds 10-999) | Compound | % of modification [1, 3] | % of modification [1, 4] | also measured |
| --- | --- | --- | --- | --- |
| < 100 nM | C=CC(=O)N1Cc2cc(-c3nc(-c4ccc5c(c4)C(=O)NC5)c4ccsc4c3-c3c(F)cc(F)cc3OC)nn2C[C@H]1C [Compound 837] | A (percent of modification of PIK3CA protein ≥75%) | – | – |
| < 100 nM | C=CC(=O)N1Cc2cc(-c3nc(-c4cnc5c(cnn5C)c4)c4ccsc4c3-c3c(F)cc(F)cc3OCCO)nn2C[C@H]1C [Compound 885] | – | A (percent of modification of PIK3CA protein ≥75%) | – |
| < 100 nM | C=CC(=O)N1CCn2nc(-c3nc(-c4ccc5c(c4)CNC(=O)C5)c4ccsc4c3-c3c(F)cc(F)cc3OCCO)cc2[C@H]1C [Compound 890] | – | A (percent of modification of PIK3CA protein ≥75%) | – |
| < 100 nM | C=CC(=O)N1CCn2nc(-c3nc(-c4ccc5c(c4)CN(C)C(=O)C5)c4ccsc4c3-c3c(F)cc(F)cc3OCCO)cc2[C@H]1C [Compound 973] | – | A (percent of modification of PIK3CA protein ≥75%) | – |
